Columns and labels:
[1] = tested on: Sweetpotato Whitefly-Crawler (Bemisia Tabaci); assay: Insecticidal test for sweetpotato whitefly-crawler in foliar spray assay (col. BEMITA); type: in vivo; conditions: Bemisia tabaci, Abbott's correction formula, read-out: BEMITA 200 ppm (Corrected % Control, rating)
In short: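 Cotton plants (one 3-5 cm true leaf) infested with whitefly eggs (100-300/plant), held 5-6 days at 82° F, 50% RH until crawlers developed. Sprayed to runoff at 200 ppm (acetone stock diluted in 0.025% Tween 20), four plants per treatment. Live nymphs counted after 8-9 days; % control by Abbott's correction versus solvent check.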

[2] = tested on: Green Peach Aphid (Myzus Persicae); assay: Insecticidal test for green peach aphid in foliar spray assay (col. MYZUPE); type: in vivo; conditions: Myzus persicae, 72 h, Abbott's correction formula, read-out: MYZUPE 200 ppm (Corrected % Control, rating)
In short: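 Cabbage seedlings with 2-3 true leaves, infested with 20-50 wingless adult and nymph aphids one day earlier, sprayed to runoff at 200 ppm (acetone/methanol stock diluted in 0.025% Tween 20), four pots per treatment. After 3 days at ~25 °C, 40% RH, live aphids counted; corrected % control versus solvent-sprayed plants.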

| SMILES | pest or weed control at 200 ppm [1] [%] | pest or weed control at 200 ppm [2] [%] |
| --- | --- | --- |
| CSCCC(=O)N(C)c1sc(-c2ccc(F)nc2)nc1Cl [Compound 453, N-[4-chloro-2-(6-fluoro-pyridin-3-yl)-thiazol-5-yl]-N-methyl-3-methylsulfanyl-propionamide] | 80 to 100 | 80 to 100 |
| CCN(C(=O)C(C)CSC)c1sc(-c2cncc(F)c2)nc1F (centres unmarked) [Compound 456] | < 80 | 80 to 100 |
| CCN(C(=O)C(C)C)c1sc(-c2cccnc2)nc1Br [Compound 457] | 80 to 100 | 80 to 100 |
| CCN(C(=O)CCSC)c1sc(-c2cccnc2)nc1Br [Compound 458] | 80 to 100 | 80 to 100 |
| COCCN(C(=O)OC(C)(C)C)c1sc(-c2cccnc2)nc1C [Compound 460] | < 80 | < 80 |
| Cc1nc(-c2cccnc2)sc1N(CC1CC1(F)F)C(=O)OC(C)(C)C (centres unmarked) [Compound 461] | < 80 | 80 to 100 |
| Cc1nc(-c2cccnc2)sc1N(CC1CC1)C(=O)OC(C)(C)C [Compound 462] | < 80 | 80 to 100 |
| C/C=C/CN(C(=O)OC(C)(C)C)c1sc(-c2cccnc2)nc1C [Compound 463] | < 80 | < 80 |
| COC(=O)/C=C/CN(C(=O)C(C)CSC)c1sc(-c2cccnc2)nc1C (centres unmarked) [Compound 464] | < 80 | 80 to 100 |
| COCCN(C(=O)C(C)CSC)c1sc(-c2cccnc2)nc1C (centres unmarked) [Compound 465] | < 80 | 80 to 100 |
| C/C=C/CN(C(=O)C(C)CSC)c1sc(-c2cccnc2)nc1C (centres unmarked) [Compound 466] | < 80 | 80 to 100 |
| CSCC(C)C(=O)N(CC1CC1(F)F)c1sc(-c2cccnc2)nc1C (centres unmarked) [Compound 467] | < 80 | 80 to 100 |
| CSCC(C)C(=O)N(CC1CC1)c1sc(-c2cccnc2)nc1C (centres unmarked) [Compound 468] | < 80 | 80 to 100 |
| CN(C(=O)CC[S+](C)[O-])c1sc(-c2ccc(F)nc2)nc1Cl (centres unmarked) [Compound 469] | < 80 | 80 to 100 |
| CC/N=C(\SCC)N(C)c1sc(-c2cccnc2)nc1C [Compound 471, 2,3-diethyl-1-methyl-1-(4-methyl-2-pyridin-3-yl-thiazol-5-yl)-isothiourea] | < 80 | 80 to 100 |
| CCCCS/C(=N\CC)N(C)c1sc(-c2cccnc2)nc1C [Compound 472] | < 80 | 80 to 100 |
| CCN(C(=O)CC(C)SC)c1sc(-c2cccnc2)nc1Br (centres unmarked) [Compound 480] | 80 to 100 | 80 to 100 |
| CCCC(C)OC(=O)N(C)c1sc(-c2cccnc2)nc1C (centres unmarked) [Compound 482] | 80 to 100 | 80 to 100 |
| CCCCOC(=O)N(C)c1sc(-c2cccnc2)nc1C [Compound 483] | 80 to 100 | < 80 |
| COCC(C)OC(=O)N(C)c1sc(-c2cccnc2)nc1C (centres unmarked) [Compound 484] | 80 to 100 | < 80 |
| COCCOC(=O)N(C)c1sc(-c2cccnc2)nc1C [Compound 485] | 80 to 100 | 80 to 100 |

| SMILES | pest or weed control at 200 ppm [1] [%] | pest or weed control at 200 ppm [2] [%] |
| --- | --- | --- |
| Cc1nc(-c2cccnc2)sc1N(C)C(=O)OCC(F)(F)F [Compound 486] | < 80 | 80 to 100 |
| CSC(C)(C)CC(=O)N(C)c1sc(-c2cccnc2)nc1Cl [Compound 489] | 80 to 100 | 80 to 100 |
| CCN(C(=O)CC(C)(C)SC)c1sc(-c2cccnc2)nc1Cl [Compound 490] | < 80 | 80 to 100 |
| Cc1nc(-c2cccnc2)sc1N(C)C(=O)OC(C)(C)C(F)(F)F [Compound 492] | 80 to 100 | < 80 |
| Cc1nc(-c2cccnc2)sc1N(C)C(=O)OC1(C)CCCCC1 [Compound 493] | 80 to 100 | 80 to 100 |
| CCN(C(=O)C(CSC)C(=O)CCSC)c1sc(-c2cccnc2)nc1Cl (centres unmarked) [Compound 496] | < 80 | 80 to 100 |
| CSCCC(=O)N(C)c1sc(-c2cccnc2)nc1Br [Compound 498] | 80 to 100 | 80 to 100 |
| CSC(C)CC(=O)N(C)c1sc(-c2cccnc2)nc1Br (centres unmarked) [Compound 499] | < 80 | 80 to 100 |
| CSCCC(=O)N(C)c1sc(-c2cncc(Cl)c2)nc1Cl [Compound 500] | 80 to 100 | 80 to 100 |
| CN(C(=O)CC[S+](C)[O-])c1sc(-c2cncc(Cl)c2)nc1Cl (centres unmarked) [Compound 501] | 80 to 100 | 80 to 100 |
| CC(CC(=O)N(C)c1sc(-c2cccnc2)nc1Br)[S+](C)[O-] (centres unmarked) [Compound 504] | 80 to 100 | 80 to 100 |
| CSCC(C)C(=O)N(C)c1sc(-c2cccnc2)nc1Br (centres unmarked) [Compound 505] | 80 to 100 | 80 to 100 |
| CN(C(=O)CC[S+](C)[O-])c1sc(-c2cccnc2)nc1Br (centres unmarked) [Compound 506] | < 80 | 80 to 100 |
| CN(C(=O)CCS(C)(=O)=O)c1sc(-c2cccnc2)nc1Br [Compound 507] | 80 to 100 | 80 to 100 |
| CSCCC(=O)N(C)c1sc(-c2cncc(C#N)c2)nc1Cl [Compound 508] | 80 to 100 | < 80 |
| CSCCC(=O)N(C)c1sc(-c2cncnc2)nc1Cl [Compound 509] | 80 to 100 | 80 to 100 |
| CSCCNC(=S)N(C)c1sc(-c2cncc(F)c2)nc1Cl [Compound 511] | < 80 | 80 to 100 |
| CN(C(=S)NCCSc1ccc(Cl)cc1)c1sc(-c2cccnc2)nc1Cl [Compound 512] | 80 to 100 | < 80 |
| COc1cncc(-c2nc(Cl)c(N(C)C(=O)CCSC)s2)c1 [Compound 513] | < 80 | < 80 |
| COc1cncc(-c2nc(Cl)c(N(C)C(=O)CC[S+](C)[O-])s2)c1 (centres unmarked) [Compound 514] | < 80 | < 80 |
| CSC(C)C(C)C(=O)N(C)c1sc(-c2cccnc2)nc1Cl (centres unmarked) [Compound 516] | < 80 | 80 to 100 |

| SMILES | pest or weed control at 200 ppm [1] [%] | pest or weed control at 200 ppm [2] [%] |
| --- | --- | --- |
| CN(C(=O)C1CCSC1)c1sc(-c2cccnc2)nc1Cl (centres unmarked) [Compound 517] | < 80 | 80 to 100 |
| CCOC1(N(C(=O)OC(C)(C)C)c2sc(-c3cccnc3)nc2C)CC1 [Compound 518] | < 80 | 80 to 100 |
| CC(CC(=O)N(C)c1sc(-c2cccnc2)nc1Cl)[S+](C)[O-] (centres unmarked) [Compound 520] | < 80 | 80 to 100 |
| CN(C(=O)CC(C)(C)[S+](C)[O-])c1sc(-c2cccnc2)nc1Cl (centres unmarked) [Compound 521] | < 80 | 80 to 100 |
| CC(C(=O)N(C)c1sc(-c2cccnc2)nc1Cl)C(C)[S+](C)[O-] (centres unmarked) [Compound 522] | < 80 | 80 to 100 |
| CN(C(=O)C1CC[S+]([O-])C1)c1sc(-c2cccnc2)nc1Cl (centres unmarked) [Compound 523] | < 80 | 80 to 100 |
| CCN(C(=O)CC(C)[S+](C)[O-])c1sc(-c2cccnc2)nc1Cl (centres unmarked) [Compound 524] | 80 to 100 | 80 to 100 |
| CCN(C(=O)c1ccsc1)c1sc(-c2cccnc2)nc1Cl [Compound 527] | 80 to 100 | < 80 |
| CCN(C(=O)Cc1ccsc1)c1sc(-c2cccnc2)nc1Cl [Compound 528] | 80 to 100 | < 80 |
| CCCCC(=O)N(CC)c1sc(-c2cccnc2)nc1Cl [Compound 530] | 80 to 100 | 80 to 100 |
| CCC(C)C(=O)N(CC)c1sc(-c2cccnc2)nc1Cl (centres unmarked) [Compound 531] | 80 to 100 | 80 to 100 |
| CCN(C(C)=O)c1sc(-c2cccnc2)nc1Cl [Compound 533] | 80 to 100 | 80 to 100 |
| C=C(CC)C(=O)N(CC)c1sc(-c2cccnc2)nc1Cl [Compound 534] | 80 to 100 | < 80 |
| C=CC(=O)N(CC)c1sc(-c2cccnc2)nc1Cl [Compound 535] | 80 to 100 | < 80 |
| CCN(C(=O)CC(C)(C)[S+](C)[O-])c1sc(-c2cccnc2)nc1Cl (centres unmarked) [Compound 537] | < 80 | 80 to 100 |
| CCN(C(=O)C(C)C(C)SC)c1sc(-c2cccnc2)nc1Cl (centres unmarked) [Compound 538] | 80 to 100 | 80 to 100 |
| CCN(C(=O)C(C)c1ccc(Cl)cc1)c1sc(-c2cccnc2)nc1Cl (centres unmarked) [Compound 540] | 80 to 100 | 80 to 100 |
| CCN(C(=O)c1cnco1)c1sc(-c2cccnc2)nc1Cl [Compound 542] | 80 to 100 | 80 to 100 |
| CCN(C(=O)c1ccc(C(C)=O)s1)c1sc(-c2cccnc2)nc1Cl [Compound 543] | 80 to 100 | 80 to 100 |

From US8853246B2 (Dow AgroSciences LLC, priority 2009, dated 2014)
